Measurements reported in patent publication US20190101533A1, “ANIMAL MODEL FOR STUDYING ZCCHC6 IN BONE DISEASE AND DEVELOPMENT” (Northeast Ohio Medical University, priority 2016, published 2019).

Tested on: human OA chondrocytes
Assay: IL-1β stimulation of human OA chondrocytes: ZCCHC6, ZCCHC11 and IL-6 expression (TaqMan, ELISA, Western immunoblotting)
Type: cell-based
Method: Chondrocytes were derived by enzymatic digestion of human cartilage obtained from OA patients (n=14) undergoing knee joint replacement. Chondrocytes were stimulated with IL-1β (5 ng/ml) or treated with Actinomycin D (5 μg/ml) or NFκB inhibitor SC514 (75 μM) or JNK inhibitor (25 μM). Total RNA from grounded cartilage and from chondrocytes was purified using Qiagen RNeasy kit (Qiagen). Reverse transcription was performed using the Quantitect Reverse Transcription kit and the ZCCHC6 or IL-6 mRNA was quantified using TaqMan assays. SiRNA-mediated depletion of ZCCHC6 in human chondrocytes was used to study the effect on inflammatory cytokine expression using a cytokine array (Ray Biotech). Protein expression of IL-6 was studied using Western immunoblotting and quantified by ELISA in culture supernatants. Results were derived using Sigma Plot 12.3 package and p<0.05 was considered significant.
We next determined whether IL-1β induces expression of IL-6 correlates with the expression of ZCCHC6 in human OA chondrocytes. Human OA chondrocytes were cultured and treated with IL-1β as above and the mRNA expression of IL-6 was quantified by TaqMan assay and secreted IL-6 was quantified using an ELISA kit specific for human IL-6 (R&D Systems, Catalog No. D0650, sensitivity of 2.17 pg IL-6/ml). ZCCHC6 protein expression was determined by Western immunoblotting using an antibody specific for the N-terminus of the protein (Santa Cruz, sc-137947).

[1] = human OA chondrocytes stimulated with IL-1β (5 ng/ml) for 24 h

IL-1β: major cytokine involved in cartilage catabolism in osteoarthritis; used to stimulate chondrocytes
expression of ZCCHC6 protein (Western immunoblotting) [1]: highly induced | secreted IL-6 in the culture medium (ELISA) [1]: secreted large amounts of IL-6 | expression of ZCCHC11 (human chondrocytes treated with IL-1β): marginally upregulated
